In patent EP0035619B1, “Derivatives of 3-amino-(1H,3H)-2,4-quinazolin-diones” (BERRI-BALZAC Société dite:, priority 1980, dated 1981):

Assays:
Format in all cases: in vivo
souris = assay: Sedative action: sedation index (hole-board exploration, hypothermia, mobility, agility)
Source text: (§1) L'action sédative est mesurée par un indice de sédation. Cet indice de sédation tient compte du pourcentage, chez la souris, de la diminution de l'exploration de la planche à trous par rapport à des témoins, de l'hypothermie, de la mobilité, de l'agilité. Les résultats pour le composé de l'exemple 3, sont donnés au Tableau Il.
as §1, with “3” for “3,”, “II.” for “Il.”

souris Swiss = assay: Acute toxicity (LD50) in Swiss mice
Protocol: Les toxicités aiguës ont été déterminées sur la souris Swiss.
Par exemple, pour le composé de l'exemple 3, la DL50 par voie IP est de 250 mg et per os de 225 mg.

rat vigile = assay: Diuretic action in the conscious rat with i.p. isotonic sodium chloride load; conditions: mean increase of diuresis versus mean of controls
Protocol: (§2) L'action diurétique est mesurée sur le rat vigile traité par 25 ou 50 mg/kg de substance à tester prise par voie orale ou intrapéritonéale et recevant une injection I.P. de soluté isotonique de chlorure de sodium au début de l'essai. Les rats sont groupés par trois et les expériences sont répétées en croisant les lots de rats.
La diurèse est exprimée par le pourcentage de l'augmentation moyenne de la diurèse par rapport à la moyenne des témoins.
as §2, with “IP” for “I.P.”

[1] = Potentiation of psychotropic drugs (Nembutal, Chlorpromazine, morphine) and antagonism of amphetamine
Source text: (§3) D'autre part, il faut noter une potentialisation par les composés de formule (I) des psychotropes : Nembutal, Chlorpromazine, morphine, et un antagoniste de l'amphétamine. A titre d'exemple, le composé de l'exemple 3 potentialise l'effet hypnotique du Nembutal de + 146 %, celui de la Chlorpromazine de + 50 % et celui de la morphine de 40 %. Par contre, il antagonise à 70 % les effets de l'amphétamine.
as §3, with “morphine” for “morphine,”

CN(C)n1c(=O)c2ccccc2n(C)c1=O [Exemple 3, diméthylamino-3 méthyl-1 (1 H, 3H) quinazolinedione-2,4]
Indice de sédation (souris; 50 mg/kg per os): 76 | Indice de sédation (souris; 100 mg/kg per os): 164 | Indice de sédation chimique (souris; 100 mg/kg per os): 179 | Indice de sédation (souris; 100 mg/kg voie I.P.): 236 | DL50 (souris Swiss; par voie IP): 250 mg | DL50 (souris Swiss; per os): 225 mg | Diurèse (rat vigile; 25 mg/kg par voie IP): 60% | Diurèse (rat vigile; 25 mg/kg par voie orale): 77% | Diurèse (rat vigile; 50 mg/kg par voie IP): 200% | Diurèse (rat vigile; 50 mg/kg par voie orale): 200% | potentialise l'effet de la Chlorpromazine ([1]; with Chlorpromazine): 50% | potentialise l'effet hypnotique du Nembutal ([1]; with Nembutal): 146% | antagonise les effets de l'amphétamine ([1]; with amphétamine): 70% | potentialise l'effet de la morphine ([1]; with morphine): 40%
